In paper PMC6044894 (ACS Omega, 2017):
Numbered stars: 1 amine (or outer) side, 2 acyl side, 3 side chain; on linkers, the order of the positions; unused ones are H or OH. Bridge positions count the residues as written; N and C are the ends. Peptide text beside a SMILES is read from it. I, II: the chains in the order shown. * marks the point of attachment. Suberoyl = O=C(CCCCCCC(=O)[*:2])[*:1]; Octanoyl = CCCCCCCC(=O)*

Assays:
[1] = target: T1, Y4R (Homo sapiens, UniProt P50391); experiment: Aequorin calcium mobilization assay on CHO-hY4-Gqi5-mtAEQ cells; format: cell-based; settings: for aequorin assay intrinsic activity α: relative to 1 μM hPP (α = 1.0)
T1 sequence (P50391 whole entry): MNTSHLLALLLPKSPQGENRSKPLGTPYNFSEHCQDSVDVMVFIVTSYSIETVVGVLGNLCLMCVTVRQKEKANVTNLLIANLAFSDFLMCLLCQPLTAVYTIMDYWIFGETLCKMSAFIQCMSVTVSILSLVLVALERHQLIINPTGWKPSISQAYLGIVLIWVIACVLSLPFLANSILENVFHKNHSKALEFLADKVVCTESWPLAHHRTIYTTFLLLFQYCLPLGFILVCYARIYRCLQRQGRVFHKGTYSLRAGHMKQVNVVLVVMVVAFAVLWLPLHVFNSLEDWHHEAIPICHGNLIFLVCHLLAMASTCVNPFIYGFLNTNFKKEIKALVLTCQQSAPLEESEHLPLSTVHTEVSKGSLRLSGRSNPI

[2] = target: T1, Y4R; experiment: β-Arrestin 1 recruitment assay on HEK293T-ARRB1-Y4R cells; format: cell-based; settings: for β-arrestin 1 assay intrinsic activity α: relative to 1 μM hPP (α = 1.0)
[3] = target: T1, Y4R; experiment: biochemical; format: binding
[4] = target: T1, Y4R; experiment: β-Arrestin 2 recruitment assay on HEK293T-ARRB2-Y4R cells; format: cell-based; settings: for β-arrestin 2 assay intrinsic activity α: relative to 1 μM hPP (α = 1.0)
[5] = target: T2, Y1R (Homo sapiens, UniProt P25929); experiment: Radioligand competition binding assay at Y1R with 46 using MCF-7-hY1 cells
T2 sequence (P25929 1-384): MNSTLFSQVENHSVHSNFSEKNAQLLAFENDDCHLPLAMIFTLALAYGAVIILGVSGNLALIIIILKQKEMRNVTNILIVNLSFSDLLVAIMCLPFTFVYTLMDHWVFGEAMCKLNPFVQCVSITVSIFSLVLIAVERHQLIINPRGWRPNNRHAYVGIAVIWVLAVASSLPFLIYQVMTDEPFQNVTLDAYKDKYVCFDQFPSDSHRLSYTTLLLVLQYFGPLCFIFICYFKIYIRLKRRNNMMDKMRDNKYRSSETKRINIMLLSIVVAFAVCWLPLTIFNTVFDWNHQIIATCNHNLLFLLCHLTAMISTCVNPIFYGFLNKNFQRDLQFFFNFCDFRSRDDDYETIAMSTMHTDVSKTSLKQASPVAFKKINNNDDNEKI

[6] = target: T3, Y5R (Homo sapiens, UniProt Q15761); format: binding
T3 sequence (Q15761 1-445): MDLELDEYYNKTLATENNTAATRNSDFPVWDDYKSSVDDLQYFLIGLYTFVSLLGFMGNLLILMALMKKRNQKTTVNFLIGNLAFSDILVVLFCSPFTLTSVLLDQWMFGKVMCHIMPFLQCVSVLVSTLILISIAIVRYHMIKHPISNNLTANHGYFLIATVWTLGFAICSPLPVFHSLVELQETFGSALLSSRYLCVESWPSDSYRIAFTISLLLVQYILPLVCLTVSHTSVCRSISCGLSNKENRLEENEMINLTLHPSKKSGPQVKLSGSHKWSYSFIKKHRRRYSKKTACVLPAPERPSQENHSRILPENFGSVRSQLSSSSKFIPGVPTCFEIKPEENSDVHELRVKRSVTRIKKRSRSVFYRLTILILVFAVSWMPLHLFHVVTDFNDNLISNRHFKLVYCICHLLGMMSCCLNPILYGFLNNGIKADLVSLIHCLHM

[7] = target: T4, Y2R (Homo sapiens, UniProt P49146); format: binding
T4 sequence (P49146 1-381): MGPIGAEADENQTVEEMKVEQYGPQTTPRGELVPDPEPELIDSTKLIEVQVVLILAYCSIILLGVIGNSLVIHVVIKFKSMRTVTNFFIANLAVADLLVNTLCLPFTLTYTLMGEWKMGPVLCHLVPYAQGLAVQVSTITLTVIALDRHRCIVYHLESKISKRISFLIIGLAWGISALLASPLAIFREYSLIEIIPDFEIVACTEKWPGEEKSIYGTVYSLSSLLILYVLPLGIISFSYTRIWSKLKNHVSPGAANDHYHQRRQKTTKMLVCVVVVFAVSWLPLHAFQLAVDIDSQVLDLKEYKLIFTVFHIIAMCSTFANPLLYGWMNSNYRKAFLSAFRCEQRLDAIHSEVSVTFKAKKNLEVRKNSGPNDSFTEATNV

Compound | aequorin assay intrinsic activity α [1] | EC50 [2] [nM] | β-arrestin 1 assay intrinsic activity α [2] | Ki [3] [nM] | increase in Y4R affinity compared to parent compound 3 ([3]; ratio of Ki values) | EC50 [4] [nM] | β-arrestin 2 assay intrinsic activity α [4] | Ki [5] [nM] | Ki [6] [nM] | Ki [7] [nM] | EC50 [1] [nM]
CC(C)C[C@H](NC(=O)[C@H](CCCNC(=N)N)NC(=O)[C@H](Cc1ccc(O)cc1)NC(=O)CCCCCCC(=O)N[C@@H](Cc1ccc(O)cc1)C(=O)N[C@@H](CCCNC(=N)N)C(=O)N[C@@H](CC(C)C)C(=O)N[C@@H](CCCNC(=N)N)C(=O)N[C@@H](Cc1ccc(O)cc1)C(N)=O)C(=O)N[C@@H](CCCNC(=N)N)C(=O)N[C@@H](Cc1ccc(O)cc1)C(N)=O [Compound 2, octanedioyl-bis(Tyr-Arg-Leu-Arg-Tyr-amide), reference compound] (I: YRLRY-NH2 / II: YRLRY-NH2; linker I:N-II:N via Suberoyl) | 0.73 | – | – | – | – | – | – | – | – | – | –
CCCCCCCC(=O)N[C@@H](Cc1ccc(O)cc1)C(=O)N[C@@H](CCCNC(=N)N)C(=O)N[C@@H](CC(C)C)C(=O)N[C@@H](CCCNC(=N)N)C(=O)N[C@@H](Cc1ccc(O)cc1)C(N)=O [Compound 33, Octanoyl-Tyr-Arg-Leu-Arg-Tyr-amide Bis(hydrotrifluoroacetate)] (Octanoyl-YRLRY-NH2) | 0.44 | 2200 ± 130 | 0.56 | 56.9 ± 5.3 | almost six | 1790 ± 1070 | 0.61 | 589 ± 120 | 3440 ± 210 | > 5000 | 2050 ± 84
CC(=O)N[C@@H](CCCNC(=N)N)C(=O)N[C@@H](Cc1ccc(O)cc1)C(=O)N[C@@H](CCCNC(=N)N)C(=O)N[C@@H](CC(C)C)C(=O)N[C@@H](CCCNC(=N)N)C(=O)N[C@@H](Cc1ccc(O)cc1)C(N)=O [Compound 36, Ac-Arg-Tyr-Arg-Leu-Arg-Tyr-amide Tris(hydrotrifluoroacetate)] | 0.78 | 187 ± 40 | 0.51 | – | – | 140 ± 45 | 0.54 | 1180 ± 380 | > 5000 | > 5000 | 303 ± 68
Ac-YRLRY-NH2 [Compound 3, Ac-Tyr-Arg-Leu-Arg-Tyr-amide, reference compound] | – | – | – | – | – | – | – | > 5000 | > 5000 | > 5000 | –
